The subject of one test is LC3. Description: Punctate LC3 immunostaining in SH-SY5Y cells. Conditions: 100 nM (FIG. 8b). The class given is cell-based, human. As to the method:
Cell culture and immunocytochemistry: SH-SY5Y cells were grown in DMEM medium supplemented with 10% FBS and 1% pen/strep at 37° C. and 5% CO2. Cells were differentiated with 10 μM retinoic acid for 48 hr, then treated with the either rapamycin (100 nM or 1 μM) or with 100 nM of either LNK-754-TS or Tipifarnib for 48-72 hr. Cells were then fixed with 4% paraformaldehyde and stained for LC3 (Novus biological, NB100-2331, dilution 1:800) followed by secondary Alexa-564 anti-Rabbit (A-11011).
Autophagy was measured in a neuroblastoma cell culture system by three distinct approaches: quantitation of autophagy-related mRNA's, immunofluorescence microscopy of autophagosomes, and biochemical detection of the microtubule-associated protein 1 light chain 3 (LC3) a key protein that is required for autophagosome formation. Differentiated human neuroblastoma cells (SH-SY5Y) were treated for 72 hr with LNK-754-TS (0.01-100 nM), Zarnestra® (also referred to herein as tipifarnib) (100 nM) or rapamycin (1 μM).

A further test has as its system LC3-II. Description: LC3-II protein level (autophagic flux) in SH-SY5Y cells with or without bafilomycin A1. In kind it is cell-based, human. The text has this:
Data are represented as mean+/−SEM with statistical significance by paired student's t-test (n=4, p<0.05).
The observed increase in LC3-positive autophagosomes could result, in principle, from either an increased flux through the autophagy pathway or decreased autophagosome degradation (Pankiv, S., et al. J Biol Chem 282, 24131-24145 (2007); Kamada, Y., et al. J Cell Biol 150, 1507-1513 (2000)). […] In order to ascertain an increase in autophagic flux, cells were co-treated with LNK-754-TS and an inhibitor of autophagosome-lysosome fusion, bafilomycin A1 (10 nM). Bafilomycin treatment alone caused a 100% increase in the amount of LC3-II, consistent with the fact that it inhibits autophagosome degradation (FIG. 8c).
The mechanism of autophagy stimulation by LNK-754-TS appears distinct from that of the drug rapamycin. Rapamycin is a well-characterized autophagy stimulator that acts through inhibition of mTOR, a kinase involved in nutrient signaling and regulation of cell growth and survival. […] To further contrast the mechanism of autophagy stimulation by LNK-754-TS to that of rapamycin, a collection of mRNA transcripts of autophagy proteins were measured (FIG. 8d). Selected mRNAs from untreated SH-SY5Y cells were compared to mRNAs from cells treated with LNK-754-TS (100 nM), tipifarnib (100 nM), or rapamycin (1 μM).

A further test relates to TAU. The experiment in a line: TAU441 transgenic mice, TAU immunoreactivity (AT180, HT7) in the amygdala. The class given is in vivo, mouse. Conditions: 0.09 mg/kg once every 24 hours, three months. As to the method:
Animals and treatments: Male and female human WT alpha-synuclein over-expressing transgenic mice^32 at 6 months of age were given vehicle (10% beta-cyclodextrin) or LNK-754-TS (0.09, 0.9 and 9 mg/kg) per oral gavage twice daily for 3 months or animals at 7 months of age were given vehicle (2.5% beta-cyclodextrin) or LNK-754-TS (2 mg/kg) once every three days for 3 months. Male and female TAU transgenic mice expressing TAU441 bearing the missense mutations V337M^50 and R406W under the control of the murine Thy-1 promoter with a CB6xC57BL/6 background were 5 months old at the time when the oral treatment for three months with LNK-754-TS (0.9 and 0.09 mg/kg) as well as vehicle (2.5% beta-cyclodextrin) was started. Female human APP/PS1 (APP (London V7171)/PS1(A246E)) over-expressing transgenic mice were treated with LNK-754-TS (0.9 mg/kg) or vehicle (2.5% beta-cyclodextrin) for 2 months or 12 days.
Immunohistochemistry and quantification of stained cells: For evaluation of α-synuclein immunoreactivity (IR), 5 sagittal cryo-cut sections (10 μm slice thickness) from five different layers were used for counting of IR cells in the cortex and hippocampus. […] IR positive cells were quantified using specialized image analysis software (Image Pro Plus, version 4.5.1.29). […] Images were evaluated with ImageProPlus (version 6.2) image analysis software. For APP/PS1 transgenic animals sagittal hemisections (40 μm) were collected and processed for Aβ immunohistochemistry using an 6E10 antibody, Thioflavin-S staining Primary antibodies were detected by the ABC method. […]
This study was designed to evaluate the effects of a treatment with LNK-754-TS dosed at 0.09 mg per kg on behavior, TAU and TAU-pT231 levels, and brain morphology of TAU441 Tg mice. Histological evaluations were performed to quantitatively evaluate TAU pathology. TAU depositions were determined using the monoclonal TAU-antibodies AT180 and HT7. […]

Entries after “also recorded” stand apart in the source; their conditions may differ.

Turning to `C#Cc1cccc(-c2cc(=O)n(C)c3ccc([C@](O)(c4ccc(Cl)cc4)c4cncn4C)cc23)c1` [LNK-754-TS, (R)-6-[(4-chlorophenyl)-hydroxyl-(1-methyl-1-H-imidazol-5-yl)-methyl]-4-(3-ethynylphenyl)-1-methyl-2-(1H)-quinonlinone (2S,3S)-dihydroxybutanedioate], in the test with LC3, the “punctate LC3 immunostaining (number of LC3-positive puncta)” value was “distinct increase; also recorded: increased”. In addition, the LC3-II protein level entry with LC3-II (100 nM in the presence of Bafilomycin A1 (10 nM)) was “increased”. Besides, the “accumulation of LC3-I or LC3-II” value with LC3-II (treatment alone, without bafilomycin) is “did not cause accumulation”. Also, in the test on TAU, the “number of AT180 immunoreactive (affected) cells in the amygdala” value was “comparable to those of baseline animals”, the “phosphorylated Tau (AT180) immunoreactivity in the amygdala vs. vehicle” value is reported as “significantly decreased; also recorded: significant reduction; also recorded: significantly reduced” and the “total Tau (HT7) immunoreactivity in the amygdala vs. vehicle” value is reported as “not significantly reduced; also recorded: did not change”.

For the origin of these results see patent US20110294794A1, “TREATMENT OF PROTEINOPATHIES USING A FARNESYL TRANSFERASE INHIBITOR” (Link Medicine Corporation, priority 2008, published 2011).
